Experiments:
[1] = tested on: Gallesekretion narkotisierter Ratten; experiment: Bile secretion (choleresis) of anaesthetised rats after intraduodenal administration; type: in vivo, Ratte; details: for ED50: Rattus norvegicus, 0.5 h, Ratte i.d., dose that raises bile secretion (fluid volume, 30-min fraction) by maximally 50 %; for TQ [LD50/ED50]: LD50 (Maus, i.p.) / ED50 Gallesekretion (Ratte i.d.), for Lfd.Nr. 1 the cited p.o. LD50
Description: (§1) In Tabelle II werden Untersuchungen der Gallesekretion (Cholerese) von narkotisierten Ratten nach intraduodenaler Applikation (ED50) und die letale Wirkung an der Maus (LD50) nach intraperitonealer Applikation von Vertretern der erfindungsgemäßen Verbindungen sowie der therapeutische Quotient (TQ = LD50/ED50) wiedergegeben.
(§2) Einfluß auf die Pankreas- und Gallesekretion der narkotisierten Ratte Versuchsdurchführung:
(§3) Männliche Sprague-Dawley-Ratten (250 - 300 ^g Körpergewicht) werden mit 1,2 g/kg Urethan i.m. narkotisiert. Dann wird die Bauchhöhle medial geöffnet, der Ductus choledochus kurz oberhalb seiner Mündung in das Duodenum sowie nahe der Leberpforte ligiert, beide Gangabschnitte werden leberwärts katheterisiert.
(§4) Da bei der Ratte alle Pankreaskanäle in den mittleren Abschnitt des Ductus choledochus munden,lassen sich auf diese Weise aus dem distalen (ligierten) Gangabschnitt das Pankreassekret und aus dem proximalen Teil des Ductus choledochus die Galle getrennt ableiten.
(§5) Die sezernierten Mengen an Pankreas- und Gallensaft werden in 30 min. Abständen während 2 Stunden vor bis 3 Stunden nach der intraduodenalen ([…]) Verabreichung der zu prüfenden Verbindungen (verabreichtes Flüssigkeitsvolumen 5 ml/kg) gemessen.
(§6) Die Körpertemperatur der Tiere wird mittels Heizkissen und Bestrahlung auf 36 - 38°C gehalten; die Temperaturkontrolle erfolgt rectal.
(§7) Auswertung: • Die Flüssigkeitsvolumina der 30-min.-Fraktionen nach der Substanzgabe werden jeweils auf die vor der Substanzapplikation ausgeschiedene Galle- bzw. Pankreassaftmenge (= 100 %, Mittelwert aus den beiden letzten Messungen) bezogen. Die maximale prozentuale Steigerung der Pankreas- bzw. Gallesekretion wird in Abhängigkeit von der Dosis dargestellt und daraus die ED50 durch Interpolation ermittelt.

Maus = experiment: Acute toxicity in mice, intraperitoneal; type: in vivo; details: i.p., female NMRI mice, 14 days observation
Description: (§8) Die Toxizitätsuntersuchungen werden an weiblichen NMRI-Mäusen (Körpergewicht 22 - 26 g) durchgeführt. Die Tiere (5 Tiere pro Dosis) erhalten Futter und Wasser ad libitum. Verschiedene Dosierungen der Substanzen werden intraperitoneal verabreicht. Die Beobachtungsdauer beträgt 14 Tage. Die DL50, d.h. die Dosis, bei der 50 % der Tiere sterben, wird aus der Dosiswirkungskurve ermittelt.

[2] = tested on: Pankreassekretion narkotisierter Ratten; experiment: Pancreatic secretion of anaesthetised rats after intraduodenal administration; type: in vivo, Ratte; details: for ED50: Rattus norvegicus, 0.5 h, Ratte, i.d., dose that raises pancreatic secretion (fluid volume, 30-min fraction) by maximally 50 %; for TQ [LD50/ED50]: LD50 (Maus, i.p.) / ED50 Pankreassekretion (Ratte, i.d.), for Lfd.Nr. 1 the cited p.o. LD50
Description: as §1, with “I” for “II”, “Pankreassekretion” for “Gallesekretion (Cholerese)”, “(^TQ” for “(TQ”
as §2, §3, §4, §5, §6, §7

[3] = tested on: CCl4-lebergeschädigte Ratten; experiment: Antihepatotoxic effect: hexobarbital sleeping time of rats after CCl4 liver damage; type: in vivo, Ratte; details: for TQ [LD50/ED50]: LD50 (Maus i.p.) / ED50 antihepatotoxischer Effekt (Ratte, p.o.), for Lfd.Nr. 1 the cited p.o. LD50; for ED50: Rattus norvegicus, po, Ratte, p.o., dose that shortens hexobarbital narcosis of CCl4-liver-damaged rats by 50 %, sodium salts in aqueous solution, given 1 h before CCl4, read-out: Antihepatotoxischer Effekt ED50
Description: In Tabelle III werden Untersuchungen der antihepatotoxischen Wirkung (ED50) erfindungsgemäßer Verbindungen nach oraler Applikation an wachen Ratten und die letale Wirkung nach intraperitonealer Applikation an der Maus (LD50) sowie der therapeutische Quotient (TQ = LD50/ED50) wiedergegeben.
Prüfung auf antihepatotoxische Wirkung
Einfluß auf die Hexobarbitalschlafdauer der Ratte nach CCl4-Leberschädi- gung
Versuchsdurchführung: • In Anlehnung an VOGEL et al. [Arzneim.Forsch. 25(1975)82] wird bei nüchternen weiblichen Sprague-Dawley-Ratten (190 *10 g Körpergewicht, 10 Tiere/Dosis pro Versuchsansatz) durch orale Verabreichung von Tetrachlorkohlenstoff ([…] CC14 in 2,5 ml/kg Olivenöl) ein Leberzellenschaden erzeugt, dessen Ausmaß an der Verlängerung der Hexobarbitalnatrium-Schlafdauer (50mg/ml/kg i.v.;Schwanzvene, Injektionsdauer 45 - 60 sec.) 47 Stunden nach der CC14-Gabe bestimmt wird. Die zu prüfenden Verbindungen werden eine Stunde vor der CC14-Gabe oral in einem Flüssigkeitsvolumen von 10 ml/kg verabreicht.
Auswertung: • Der antihepatotoxische Effekt der zu prüfenden Verbindungen (NatriumSalze in wäßriger Lösung) wird an der prozentualen Verkürzung der durch die CC14-Leberzellschädigung bedingten Schlafdauerverlängerung bei den behandelten Gruppen gegenüber der Schlafdauerverlängerung der CC14-Kontrollgruppe (= 100 %) gemessen. Die ED50 wurde durch Interpolation aus der Dosis-Wirkungskurve ermittelt.

[4] = Acute toxicity in mice, intraperitoneal; type: in vivo; details: mouse, in vivo, ip; Maus, i.p.; female NMRI mice, 14 days observation; read-out: Toxizität LD50
Description: as §8

Structure (SMILES)	ED50 ([1]; intraduodenal) [mg/kg]	Toxizität LD50 (Maus) [mg/kg]	ED50 ([2]; intraduodenal) [mg/kg]	TQ [LD50/ED50] [3]	ED50 [3] [mg/kg]	TQ [LD50/ED50] [1]	ED50 [1] [mg/kg]	LD50 at 336 h [4] [mg/kg]	TQ [LD50/ED50] [2]	ED50 [2] [mg/kg]	TQ [LD50/ED50] ([2]; listed as 1)
C#CC1(N(CCCC(=O)O)C(=O)c2ccc(Cl)cc2)CCCCC1 [Beispiel 5]	6	–	–	–	–	–	–	–	–	–	–
CC(C)(C)CC(C)(C)N(CCCC(=O)O)C(=O)c1ccc(F)cc1 [Beispiel 16]	–	400	~10	–	–	–	–	–	–	–	–
CC(C)(C)N(CCCC(=O)O)C(=O)c1ccc(Cl)cc1 [Lfd. Nr. 2, N-p-Chlorbenzoyl-4-(tert.-butylamino)-buttersäure]	–	–	–	> 10	100	> 40	25	> 1000	–	–	–
C#CC(C)(C)N(CCCC(=O)O)C(=O)c1ccc(Cl)cc1 [Lfd. Nr. 3, N-p-Chlorbenzoyl-4-[(2-methyl-3-butin-2-yl)-amino]-buttersäure]	–	–	–	–	–	–	–	> 1000	»100	10	–
C#CC(CC)(CC)N(CCCC(=O)O)C(=O)c1ccc(Cl)cc1 [Lfd. Nr. 4, N-p-Chlorbenzoyl-4-[(3-ethyl-1-pentin-3-yl)-amino]-buttersäure]	–	–	–	7,8	100	43	18	780	156	5	–
O=C(O)CCCN(C(=O)c1ccc(Cl)cc1)C12CC3CC(CC(C3)C1)C2 [Lfd. Nr. 6, N-p-Chlorbenzoyl-4-(1-adamantyl)-aminobuttersäure]	–	–	–	110	10	220	5	1100	~220	~5	–
CC(C)(C)CC(C)(C)N(CCCC(=O)O)C(=O)c1ccc(Cl)cc1 [Lfd. Nr. 7, N-p-Chlorbenzoyl-4-[(1.1.3.3-tetramethyl-butyl)-amino]-butter-säure]	–	–	–	< 3,6	> 300	27	40	–	–	35	31
C#CC1(N(CCCC(=O)O)C(C)=O)CCCCC1 [Lfd. Nr. 8, N-Acetyl-4-[(1-ethinyl-cyclohexyl-1)-amino]-buttersäure]	–	–	–	–	–	32	6	190	–	–	–
CCC(C)(C)N(CCCC(=O)O)C(=O)c1ccc(Cl)cc1Cl [Lfd. Nr. 11, N-2,4-Dichlorbenzoyl-4-[(1.1-dimethyl-propyl)-amino]-butter-säure]	–	–	–	–	–	–	–	200	200	1	–
O=C(O)CCCN(Cc1ccccc1)C(=O)c1ccc(Cl)cc1 [Lfd. Nr. 15, N-p-Chlorbenzoyl-4-benzylamino-buttersäure]	–	–	–	18,8	8	–	–	150	60	2.5	–
O=C(O)CCCN(C(=O)c1ccc(Cl)cc1)C1CCCCCCC1 [Lfd. Nr. 18, N-p-Chlorbenzoyl-4-cyclooctylamino-buttersäure]	–	–	–	–	–	–	–	350	233	1.5	–
